Blank lines part the entries; values can stand above or below the substance they belong to. No end group written: not given here.
Assays:
[1] = target: T1, εPKC (Homo sapiens, UniProt Q02156); experiment: In vitro binding assay of εPKC to the peptides; settings: εPKC at ~75 μg/mL (~1 μM)
T1 sequence (Q02156 1-737): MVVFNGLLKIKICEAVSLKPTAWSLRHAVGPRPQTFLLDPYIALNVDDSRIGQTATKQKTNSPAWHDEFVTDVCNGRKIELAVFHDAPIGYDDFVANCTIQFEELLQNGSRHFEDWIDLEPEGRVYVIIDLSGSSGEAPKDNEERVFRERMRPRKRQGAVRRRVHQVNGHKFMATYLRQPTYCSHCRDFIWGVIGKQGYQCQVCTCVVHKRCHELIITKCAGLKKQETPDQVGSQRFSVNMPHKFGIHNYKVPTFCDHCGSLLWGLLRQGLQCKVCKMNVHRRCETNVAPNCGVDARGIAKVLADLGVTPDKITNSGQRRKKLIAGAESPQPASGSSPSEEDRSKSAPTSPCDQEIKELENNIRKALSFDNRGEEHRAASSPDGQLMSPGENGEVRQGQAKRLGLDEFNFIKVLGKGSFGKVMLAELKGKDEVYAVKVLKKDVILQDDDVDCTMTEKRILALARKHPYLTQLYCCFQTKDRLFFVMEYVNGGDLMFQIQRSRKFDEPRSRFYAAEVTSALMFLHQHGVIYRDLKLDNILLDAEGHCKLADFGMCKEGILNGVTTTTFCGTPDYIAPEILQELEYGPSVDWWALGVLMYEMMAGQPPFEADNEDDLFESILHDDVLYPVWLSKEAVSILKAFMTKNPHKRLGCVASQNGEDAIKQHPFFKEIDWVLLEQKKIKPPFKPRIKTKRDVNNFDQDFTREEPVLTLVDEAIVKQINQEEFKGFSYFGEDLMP

[2] = test system: H9c2 cells; assay type: cell-based; settings: H9c2, ischemia and reoxygenation
[3] = test system: H9c2 cells; experiment: Mitochondrial ROS production; settings: H9c2, ischemia and reoxygenation; peptide 2 μM
[4] = test system: Rat hearts subjected to I/R; experiment: Langendorff ex vivo model of myocardial infarction; settings: ψDrp1 alanine substitution study, n=4
[5] = test system: phosphorylation of Drp1; experiment: Drp1 phosphorylation after cardiac I/R, ψDrp1 derivatives; settings: hearts subjected to I/R
[6] = target: δPKC (Homo sapiens, UniProt Q05655); experiment: In vitro binding assay of δPKC to the peptides
Sequence of δPKC (Q05655 whole entry): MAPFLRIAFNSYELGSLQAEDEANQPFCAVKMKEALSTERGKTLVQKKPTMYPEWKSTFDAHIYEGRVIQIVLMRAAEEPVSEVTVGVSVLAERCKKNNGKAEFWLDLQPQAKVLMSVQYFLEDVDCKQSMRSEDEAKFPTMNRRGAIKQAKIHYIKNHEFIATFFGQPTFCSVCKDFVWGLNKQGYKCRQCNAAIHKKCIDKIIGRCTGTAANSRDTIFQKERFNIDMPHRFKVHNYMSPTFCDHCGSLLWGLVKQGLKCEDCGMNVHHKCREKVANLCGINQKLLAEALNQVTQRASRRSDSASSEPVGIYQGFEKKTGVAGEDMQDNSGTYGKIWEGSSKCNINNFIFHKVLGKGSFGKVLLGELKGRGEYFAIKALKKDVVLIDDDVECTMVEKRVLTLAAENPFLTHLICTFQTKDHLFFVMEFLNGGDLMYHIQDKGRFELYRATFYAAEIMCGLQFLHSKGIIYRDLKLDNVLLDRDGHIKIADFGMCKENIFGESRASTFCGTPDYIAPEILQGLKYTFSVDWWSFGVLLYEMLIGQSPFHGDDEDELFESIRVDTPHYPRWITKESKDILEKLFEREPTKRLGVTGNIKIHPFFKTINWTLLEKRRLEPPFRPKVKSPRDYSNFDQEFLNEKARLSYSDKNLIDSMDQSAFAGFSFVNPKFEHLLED

Binding to εPKC [1]: not to the another PKC isozyme, εPKC
Substance: RAAEEP-NH2 (C-terminus assumed) [ψMARCKS-Cargo]

Substance: YGRKKRRQRRRGGYTDFDE-NH2 (C-terminus assumed) [ψDrp1]
Effect on mitochondrial function and cell viability [2]: rescued mitochondrial function and cell viability
Effect on excessive mitochondrial ROS production [3]: decreased excessive mitochondrial ROS production
Protection from cardiac damage [4]: 75%

Substance: YTAFDE-TAT [ψDrp1 Asp3 Ala]
Effect on Drp1 phosphorylation [5]: inhibited Drp1 phosphorylation
Protection from cardiac damage [4]: 65%

Kd [6]: 1.4 ± 0.3 nM
Substance: YTDFDE [ψDrp1-Cargo]

Reference: article PMC5308906 (Angewandte Chemie (International ed. in English), 2016)
